Measured values: patent publication US20170114329A1, “SCALABLE ORGANOTYPIC MODELS OF TUMOR DORMANCY” (THE REGENTS OF THE UNIVERSITY OF CALIFORNIA, priority 2013, published 2017)
Entries after “also recorded” stand apart in the source; their conditions may differ.

Legend:
Type in all cases: cell-based, human
Notch1 = Notch1 knockdown in E4ORF1-HUVEC, immunoblot; conditions: normalized to Lamin A/C
Description: E4ORF1-HUVECs were infected at 5 MOI with custom-made lentiviruses (Sigma) containing shRNA targeting human Notch1 in a pLKO.1-puro-CMV-TagRFP vector. Empty vector was used as a control (shCtrl). Sequences for shRNA were as follows:
shNotch1-E4-ECs and shCtrl-E4-ECs were lysed in 2% SDS/PBS. Twenty μg of each lysate was then separated on a Tris-Glycine 4-20% gel. Notch1 was probed with a rabbit polyclonal antibody (AbCam ab27526, 1:500). The blot was stripped and re-probed with a rabbit polyclonal antibody to the nuclear membrane protein Lamin A/C, used here as a loading control (Santa Cruz Biotechnology sc-20681, 1:2000).

[1] = tested on: E4-EC microvascular networks; assay: Neovascular tip number in microvascular niche cultures; conditions: shNotch1 E4-EC vs shCtrl, day 7
Protocol: (§1) Microvascular niche cultures were generated with modifications to a previously described protocol, described in Evensen, L., et al. Mural cell associated VEGF is required for organotypic vessel formation. PLoS One 4, e5798 (2009), hereby incorporated by reference in its entirety. LFs or MSCs were seeded alone at a density of 5×10^4 cells/well in 96-well culture plates or with mCherry-E4-ECs at a 5:1 ratio to generate lung-like or BoMa-like microvascular niches, respectively. Cells were suspended in EGM-2 at a concentration 5×10^4 cells/100 μl (stroma only) or 6×10^4 cells/100 μl (stroma+ECs). After depositing 100 μl of cellular suspension per well of a 96-well plate, plates were left undisturbed on a flat surface for 20 min to allow even cell seeding prior to incubation.
Network properties were counted manually using the “cell counter” application in ImageJ.
E4ORF1-HUVECs were infected at 5 MOI with custom-made lentiviruses (Sigma) containing shRNA targeting human Notch1 in a pLKO.1-puro-CMV-TagRFP vector. Empty vector was used as a control (shCtrl).

T4-2 cells = assay: Growth of YFP T4-2 breast cancer cells on lung stroma (LF) cultures; conditions: add-back to T4-2 cells plated on lung stroma without ECs; normalized to vehicle condition
Protocol: as §1
After 7 days, YFP tumor cells were suspended in unsupplemented DMEM/F12 (800 cells/ml). YFP tumor cells were seeded (100 μl/well) after washing cultures thrice with PBS. […]
A macro was written using NIH ImageJ open source software to remove bias from data quantification. […] The total area fraction of the 6×6 tiled image occupied by YFP cells was then calculated. […] For each image, the measured area fraction at day 10 was normalized by the corresponding day 0 value in order to account for any small variations in seeding density from well-to-well.

Row | Substance | endothelial cell Notch1 expression at the protein level (Notch1) | number of endothelial tips [1] | tumor cell growth (normalized tumor cell area fraction) (T4-2 cells)
1 | sh8393: shRNA targeting human Notch1, SEQ ID NO: 1, in pLKO.1-puro-CMV-TagRFP lentiviral vector (CCGGCTTTGTTTCAGGTTCAGTATTCTCGAGAATACTGAACCTGAAACAAAGTTTTT) | significantly reduced endothelial cell Notch1 expression | significant reduction in the number of endothelial tips | 
2 | thrombospondin-1 [TSP-1] |  |  | significant reduction in tumor cell growth; also recorded: sufficient to suppress BCC growth on lung stroma
